Experimental data published in US20190022043A1, “METHODS OF USING CASPASE INHIBITORS IN TREATMENT OF LIVER DISEASE” (Conatus Pharmaceuticals Inc., priority 2015, published 2019).

How the values were obtained:
Type in all cases: in vivo, human
[1] = test system: patients with liver cirrhosis; experiment: Phase 2 clinical trial in liver cirrhosis: liver function (MELD score, Child-Pugh score, total bilirubin, INR, albumin); settings: for INR Change at Month 3 / Total bilirubin Change at Month 3 / Albumin Change at Month 3 / Child-Pugh score Change at Month 3 / MELD score Change at Month 3: 25 mg orally twice daily, three months, LOCF
Protocol: (§1) A double-blind, placebo-controlled Phase 2 clinical trial was conducted at 26 U.S. sites and enrolled 86 patients with liver cirrhosis due to different etiologies, mild to moderate liver impairment as determine by Child Pugh classification and baseline MELD scores of 11 to 18. Patients were randomized 1:1 to receive either 25 mg of emricasan (IDN-6556) or placebo orally twice daily for three months. Endpoints included a change from baseline in cCK18 and changes from baseline in MELD and Child-Pugh scores, which are composite scores of laboratory parameters associated with liver synthetic and excretory function, such as serum albumin levels, international normalized ratio (INR) and total bilirubin levels.
(§2) Among the 86 subjects enrolled and receiving study drug, liver cirrhosis etiologies included alcohol (39%), hepatitis C virus (29%), non-alcoholic steatohepatitis, or NASH (23%), and other causes (9%). Baseline MELD scores were […] in 78% of enrolled subjects and >15 in 22% of enrolled subjects. Baseline Child-Pugh status was A in 43% of subjects and B in 56% of subjects.
The overall trends were driven by statistically significant improvements in MELD and Child-Pugh scores in a high medical need subgroup of patients with baseline MELD scores ≥15, the established prerequisite for listing a patient for liver transplant.

[2] = test system: caspase-driven cell death (cCK18, caspase 3/7, flCK18); experiment: Phase 2 clinical trial in liver cirrhosis: mechanism-based biomarkers (cCK18, caspase 3/7, flCK18); settings: overall patient population
Protocol: as §1, §2

[3] = test system: patients with liver cirrhosis; experiment: Phase 2 clinical trial in liver cirrhosis: common indicators of liver damage (ALT, AST); settings: overall patient population
Protocol: as §1, §2

[4] = baseline MELD ≥15 subgroup, after three months of treatment, placebo two of ten

Compound: C[C@H](NC(=O)C(=O)Nc1ccccc1C(C)(C)C)C(=O)N[C@@H](CC(=O)O)C(=O)COc1c(F)c(F)cc(F)c1F [Emricasan, (3S)-3-[N—(N′-(2-tert-Butylphenyl) Oxamyl)Alaninyl]Amino-5-(2′,3′,5′,6′-Tetrafluorophenoxy)-4-Oxopentanoic Acid]
- INR Change at Month 3 ([1]; baseline MELD score ≥15 patient population, N = 9, baseline 1.54, p 0.0004 vs placebo): −0.14
- Total bilirubin Change at Month 3 ([1]; baseline MELD score ≥15 patient population, N = 9, baseline 3.17, p 0.03 vs placebo): -0.55 mg/dL
- Albumin Change at Month 3 ([1]; baseline MELD score ≥15 patient population, N = 9, baseline 3.41, p 0.78 vs placebo): +0.07 g/dL
- Child-Pugh score Change at Month 3 ([1]; baseline MELD score ≥15 patient population, N = 9, baseline 7.8, p 0.003 vs placebo): −0.6
- MELD score Change at Month 3 ([1]; baseline MELD score ≥15 patient population, N = 9, baseline 16.0, p 0.003 vs placebo): −1.6
- patients with an increase in Child-Pugh score ([1]; baseline MELD ≥15 subgroup, after three months of treatment, placebo four out of ten (at least one point increase)): none of nine
- patients who achieved a reduction in MELD score to below 14 ([1]; baseline MELD ≥15 subgroup, after three months of treatment, placebo one out of ten): Four of nine
- patients who achieved at least a 2 point reduction in MELD score [1, 4]: Six of nine
- patients with at least a one point reduction in Child Pugh score [1, 4]: Four of nine
- INR Change at Month 3 ([1]; overall patient population, N = 44, baseline 1.33, p 0.12 vs placebo): −0.02
- Total bilirubin Change at Month 3 ([1]; overall patient population, N = 44, baseline 2.25, p 0.19 vs placebo): -0.05 mg/dL
- Albumin Change at Month 3 ([1]; overall patient population, N = 44, baseline 3.46, p 0.38 vs placebo): +0.02 g/dL
- Child-Pugh score Change at Month 3 ([1]; overall patient population, N = 44, baseline 6.9, p 0.10 vs placebo): −0.2
- MELD score Change at Month 3 ([1]; overall patient population, N = 44, baseline 12.8, p 0.50 vs placebo): −0.1
- other mechanism-based biomarkers (caspase 3/7, flCK18) [2]: positive changes
- cCK18 Change at Month 3 ([2]; N = 44, 25 mg orally twice daily for three months, last observation carried forward, baseline 289 U/L (geometric mean), p 0.04 vs placebo): −4.6%
- flCK18 Change at Month 3 ([2]; N = 44, 25 mg orally twice daily, three months, LOCF, baseline 714 U/L, p 0.005 vs placebo): −18%
- Caspase 3/7 Change at Month 3 ([2]; N = 44, 25 mg orally twice daily, three months, LOCF, baseline 2656 RLU, p <0.0001 vs placebo): −45.5%
- caspase-cleaved cytokeratin 18 (cCK18) vs. placebo ([2]; adjusted for baseline MELD score and disease etiology, p=0.04): statistically significant reduction
- common indicators of liver damage (ALT, AST) [3]: positive changes
- ALT Change at Month 3 (median change) ([3]; N = 44, 25 mg orally twice daily, three months, LOCF, baseline 27.5, p 0.03 vs placebo): −3.0 U/L
- AST Change at Month 3 (median change) ([3]; N = 44, 25 mg orally twice daily, three months, LOCF, baseline 50.0, p 0.08 vs placebo): −5.0 U/L
